Assays:
[1] = tested on: Rhizopus stolonifer ATCC 24862; assay: agar diffusion test, commercial phytosanitaries; type: cell-based; conditions: incl. 6 mm disc
[2] = tested on: Geotrichum candidum CECT 1902; assay: agar diffusion test, commercial phytosanitaries; type: cell-based; conditions: incl. 6 mm disc
[3] = tested on: Trichoderma aureoviride CECT 20102; assay: agar diffusion test, commercial phytosanitaries; type: cell-based; conditions: incl. 6 mm disc
[4] = tested on: Penicillium italicum CECT 2294; assay: agar diffusion test with impregnated cellulose discs; type: cell-based; conditions: incl. 6 mm disc
[5] = tested on: pears (Decana and Flor de Invierno varieties); assay: phytotoxicity on treated pears; conditions: 450 ppm
Penicillium expansum [6] = assay: post-harvest rotting of inoculated pears, drencher treatment; type: in vivo; conditions: 450 ppm, 15 days of refrigeration at 5-6° C.
Experimental: (§1) The effectiveness of the active principle PTS (in various individual doses) was studied in the control of post-harvest rotting of pears and apples caused by the fungi Botrytis cinerea and Penicillium expansum, the principal agents of diseases in these fruits. These phytopathogens can appear in fruit being stored in a cold room and, once in the processing plant and in a later phase, form colonies and are transferred from one fruit to another by contact. The study was performed by means of a controlled inoculation test to ensure a high percentage of affected fruits, and to guarantee that this level of infection is with certainty caused by these pathogens, thereby making it possible to detect and evaluate significant differences between the different treatments. […] To perform the controlled inoculation, wild strains of Botrytris cinerea and Penicillium expansum were used which were isolated in fruit and vegetable processing plants. […] After the time indicated above had passed, the various post-harvest treatments were carried out by means of […] 25° C. for 60 seconds.

Botrytis cinerea [7] = assay: as above; type: in vivo; conditions: 450 ppm, 15 days of refrigeration at 5-6° C.
Experimental: as §1

Penicillium expansum [8] = assay: post-harvest rotting of inoculated apples, drencher treatment; type: in vivo; conditions: 450 ppm, 15 days of refrigeration at 5-6° C.
Experimental: as §1

Botrytis cinerea [9] = assay: as above; type: in vivo; conditions: 450 ppm, 15 days of refrigeration at 5-6° C.
Experimental: as §1

[10] = tested on: apples (Golden Delicious and Red Chief varieties); assay: phytotoxicity on treated apples; conditions: 450 ppm

Row | Compound | diameter of the microbial inhibition halo ([1]; 4000 ppm active principle) [mm] | diameter of the microbial inhibition halo ([1]; 6000 ppm active principle) [mm] | diameter of the microbial inhibition halo ([2]; 4000 ppm active principle) [mm] | diameter of the microbial inhibition halo ([2]; 6000 ppm active principle) [mm] | diameter of the microbial inhibition halo ([3]; 4000 ppm active principle) [mm] | diameter of the microbial inhibition halo ([3]; 6000 ppm active principle) [mm] | diameter of the microbial inhibition halo ([4]; 4000 ppm active principle) [mm] | diameter of the microbial inhibition halo ([4]; 6000 ppm active principle) [mm] | further results
1 | c1ccc(-c2ccccc2)cc1 [Biphenyl] | 0 | 0 | 0 | 0 | 0 | 0 | 7 | 8 | 
2 | Oc1ccccc1-c1ccccc1 [o-pheynl phenol] | 14 | 15 | 45 | 47 | 40 | 42 | 45 | 45 | 
3 | imazalil sulfate [reference compound] |  |  |  |  |  |  |  |  | Phytotoxicity (number of damaged fruits) ([5]; Decana, fruit inoculated with Botrytis cinerea): 0; Phytotoxicity (number of damaged fruits) ([5]; Decana, fruit inoculated with Penicillium expansum): 0; Phytotoxicity (number of damaged fruits) ([5]; Flor de invierno, fruit inoculated with Botrytis cinerea): 0; Phytotoxicity (number of damaged fruits) ([5]; Flor de invierno, fruit inoculated with Penicillium expansum): 0; % of fruit affected (Penicillium expansum [6]; Decana): 4.5%; % of fruit affected (Penicillium expansum [6]; Flor de invierno): 6.7%; % of fruit affected (Botrytis cinerea [7]; Decana): 19%; % of fruit affected (Botrytis cinerea [7]; Flor de invierno): 24%; % of fruit affected (Penicillium expansum [8]; Golden Delicious): 4.3%; % of fruit affected (Penicillium expansum [8]; Red Chief): 6.2%; % of fruit affected (Botrytis cinerea [9]; Golden Delicious): 10%; % of fruit affected (Botrytis cinerea [9]; Red Chief): 12%; Phytotoxicity (number of damaged fruits) ([10]; Golden Delicious, fruit inoculated with Botrytis cinerea): 0; Phytotoxicity (number of damaged fruits) ([10]; Golden Delicious, fruit inoculated with Penicillium expansum): 0; Phytotoxicity (number of damaged fruits) ([10]; Red Chief, fruit inoculated with Botrytis cinerea): 0; Phytotoxicity (number of damaged fruits) ([10]; Red Chief, fruit inoculated with Penicillium expansum): 0
